Tests used:
Type in all cases: physicochemical
[1] = Loading of HPMC into LFB lenses by soaking in aqueous HPMC solution
From the text: The first step of this work was to assess the feasibility of loading HPMC directly into a lens. […] The mass uptake of various HPMC solutions is presented in Table 2 (showing mass loading of various HPMC concentrations and molecular weights).

[2] = Dynamic HPMC release studies, perfect sink (Sotax dissolution apparatus, DI water); details: soaked LFB lenses
Description: Dynamic HPMC Release Studies. Dynamic release studies were conducted to measure how long each therapeutic contact lens would release HPMC in-vitro. The studies were conducted with the perfect sink model in order to sustain the greatest driving force, using a Sotax Dissolution Apparatus (Horsham, Pa.), in which loaded lenses were placed in 250 mL of DI water (pH 6.4). Separate experiments were conducted to confirm the perfect sink volume.
In the Sotax apparatus, the release media was stirred at a constant rate of 30 rpm by paddles and kept at a constant temperature of 34° C. The average weight of the lenses out of the mold was 35 mg±6 mg. HPMC concentration in the release medium was determined via HPLC (Shimadzu, Japan) equipped with a refractive index detector. The mobile phase was deionized water, and a flow rate of 1 mL/min was maintained by the HPLC. A standard curve of refractive index and known HPLC concentration was established. Percent mass release curves were plotted for each lens.

[3] = Pre-polymer loading of HPMC into LFB lens formulation
Description: Synthesis of LFB Lenses and Synthesis of Imprinted LFB Lenses. Lenses were produced by mixing individual monomers of the LFB formulation. The monomers were kept refrigerated at 4° C. A typical formulation consisted of 1300 mg of Betacon macromer, 1300 mg of TRIS, and 1300 mg of DMA (referred to as the base formulation). The base formulation was equal parts of these monomers and used to calculate ratios of other components. Equal weights of EGDMA and PEG200DMA were added to a desired concentration anywhere between 0 and 10 wt % of the base formulation Imprinting monomers were then added between 0 and 10 wt % of the base formulation. Darocur 1173 was added to the solution to a concentration of 1% of the base formulation. The samples were thoroughly mixed by sonication for 30 minutes and then the comfort agent was added to the desired concentration. The formulations were exposed to high shear mixing for up to 1 minute and sonicated for at least 15 minutes to remove any dissolved air or air bubbles. After the comfort agent was added, the sample was sonicated and mixed until evenly dispersed.
A fixed volume was pipetted into polypropylene (PP) lens molds provided by CIBA Vision, Inc. The mass of formulation pipetted varied between 100 to 200 mg depending on the concentration of comfort agent. […]

[4] = Heat stability of HA solutions; details: heated 60 minutes
Description: The effect of heat conditions on HA solution was also assessed. In 2 mL microcentrifuge vials, 1 mL samples of HA solutions of 500 ng/mL and 10 μg/mL were heated to 105° C. and 121EC respectively. The 500 ng/mL samples were heated for 0 minutes, 5 minutes, 30 minutes and 60 minutes while the 10 μg/mL samples were heated for 15 minutes, 30 minutes, 45 minutes and 60 minutes. The sample vials were quenched in a room temperature water bath and assayed with an ELISA assay kit for HA.

[5] = Dynamic release of HA from hydrogel lenses in lacrimal solution (ELISA); details: largest HA, 1 million daltons; 6.5 mg HA per g PM
Description: Dynamic Release Studies. Dynamic release studies were conducted to measure how long a therapeutic contact lens would release drug in vitro under conditions similar to the eye surface. The studies are also able to reveal the order of the release.
The protocol for a kinetic release study begins with the synthesis of hydrogel as described previously. As each study was conducted in triplicate, three lenses were made of every HA-prepolymer formulation. A lacrimal solution isotonic with human tears (6.78 g/L NaCl, 2.18 g/L NaHCO3, 1.38 g/L Kcl, 0.084 g/L CaCl2 2H2O, pH 8) was pipetted into 50 mL centrifugation tubes, 20 mL per tube. Each lens was placed in a tube and incubated at 35EC on an orbital shaker. After measured time intervals, the lenses were extracted and deposited into fresh lacrimal solution. The lacrimal solution with HA released in it was stored at 4° C. until essayed. After data had been collected for 3-5 days, an ELISA assay for HA was used to determine the concentration in each release sample. If necessary, the samples were diluted to bring into the assay detection range.
Cumulative release curves were plotted for each lens formulation, and the data was used to calculate the rate of diffusion of HA from the hydrogel. The transport of the drug from the lens placed in a fluid environment was mathematically modeled. […]

hydroxypropyl methylcellulose [HPMC 90 KDa]
Mass Loaded from Drug Solutions ([1]; 1 Day Soak, 0.1%): 0.09 μg/lens
Mass Loaded from Drug Solutions ([1]; 1 Day Soak, 1%): 0.07 μg/lens
Mass Loaded from Drug Solutions ([1]; 1 Day Soak, 10%): 0.4 μg/lens
Mass Loaded from Drug Solutions ([1]; 2 Day Soak, 0.1%): 0.09 μg/lens
Mass Loaded from Drug Solutions ([1]; 2 Day Soak, 1%): 0.65 μg/lens
Mass Loaded from Drug Solutions ([1]; 2 Day Soak, 10%): 0 μg/lens
Mass Loaded from Drug Solutions ([1]; 7 Day Soak, 0.1%): 0.01 μg/lens
Mass Loaded from Drug Solutions ([1]; 7 Day Soak, 1%): 0.48 μg/lens
Mass Loaded from Drug Solutions ([1]; 7 Day Soak, 10%): 0 μg/lens
Release Time After 7 Day Soak [2]: None

hydroxypropyl methylcellulose [HPMC 120 KDa]
loading of HPMC limited by thickness ([3]; 100 μm swollen lens thickness): ~1,000 μg/lens
maximum mass of HPMC loaded (pre-polymer loaded) ([3]; 350 μm thick lens): ~8,000 μg/lens
Mass Loaded from Drug Solutions ([1]; 1 Day Soak, 0.1%): 0.001 μg/lens
Mass Loaded from Drug Solutions ([1]; 1 Day Soak, 1%): 0.003 μg/lens
Mass Loaded from Drug Solutions ([1]; 1 Day Soak, 10%): 0.004 μg/lens
Mass Loaded from Drug Solutions ([1]; 2 Day Soak, 0.1%): 0.08 μg/lens
Mass Loaded from Drug Solutions ([1]; 2 Day Soak, 1%): 0.04 μg/lens
Mass Loaded from Drug Solutions ([1]; 2 Day Soak, 10%): 0.01 μg/lens
Mass Loaded from Drug Solutions ([1]; 7 Day Soak, 0.1%): 0.006 μg/lens
Mass Loaded from Drug Solutions ([1]; 7 Day Soak, 1%): 0.2 μg/lens
Mass Loaded from Drug Solutions ([1]; 7 Day Soak, 10%): 0.1 μg/lens
loading after soaking in a solution for a week ([1]; any solution concentration): ≤ 0.2 μg/lens
Release Time After 7 Day Soak [2]: None

Hyaluronic Acid [HA]
change in signal strength (heat degradation of large HA) ([4]; 500 ng/mL solution): 50%
change in concentration (heat degradation of large HA) ([4]; 10 μg/mL solution): 30%
time HA was diffusing out of the lens [5]: up to 3 days

hydroxypropyl methylcellulose [HPMC 10 KDa]
Mass Loaded from Drug Solutions ([1]; 1 Day Soak, 0.1%): 0.32 μg/lens
Mass Loaded from Drug Solutions ([1]; 1 Day Soak, 1%): 4.1 μg/lens
Mass Loaded from Drug Solutions ([1]; 1 Day Soak, 10%): 5.4 μg/lens
Mass Loaded from Drug Solutions ([1]; 2 Day Soak, 0.1%): 0.21 μg/lens
Mass Loaded from Drug Solutions ([1]; 2 Day Soak, 1%): 3.2 μg/lens
Mass Loaded from Drug Solutions ([1]; 2 Day Soak, 10%): 6.9 μg/lens
Mass Loaded from Drug Solutions ([1]; 7 Day Soak, 0.1%): 1.2 μg/lens
Mass Loaded from Drug Solutions ([1]; 7 Day Soak, 1%): 5.7 μg/lens
Mass Loaded from Drug Solutions ([1]; 7 Day Soak, 10%): 2.9 μg/lens
Release Time After 7 Day Soak [2]: 30 min
release time from soaked lenses [2]: less than 30 minutes

Reference: patent US9238003B2, “Extended or continuous wear silicone hydrogel contact lenses for the extended release of comfort molecules” (AUBURN UNIVERSITY, priority 2005, dated 2016)
